Data: patent US5430058A, “Pharmaceutical compositions comprising hydroxamate derivatives for iron removal” (Yeda Research and Development Co. Ltd., priority 1993, dated 1995)
≈ marks a conversion by molar mass, not a printed value. Where two headings read alike, the source gives them in different places. Blank lines part the entries; values can stand above or below the molecule they belong to.

What was measured:
[1] = system: trophozoites of P. falciparum, strain ItG2G1; experiment: Antimalarial activity (Table 1), [3H]hypoxanthine incorporation; format: cell-based; details: Plasmodium falciparum
Experimental: (§1) f. Parasite cultures. The P. falciparum strains used in the experiments: ItG2G1 (Brazil, provided by Dr. L. H. Miller), D6 (W. African, provided by Dr. A. J. M. Oduola) FCR-3 (Gambian, provided by Dr. J. B. Jensen) and W2 (Indochina, provided by Dr. A. J. M. Oduola), were grown in culture flasks of human erythrocytes by a modified version of Trager and Jensen's method as described by Silfen et al. ((1988) Biochem. Pharmacol. 37: 4269-4276)).
(§2) g. Bioassay of iron carrier antimalarial activity. The antimalarial activity was assayed by adding the compounds from concentrated stock solutions (in DMSO) to microcultures (24 wells, Costar) containing infected red cells (2.5% hematocrit and 2% parasitemia). The cultures were usually synchronized (4-7 hrs. windows) by incubation in 300 mM Ala, 10 mM TRIS-Cl in conjunction with gelatin flotation and used either at the trophozoite (1-2% parasitemia) or at the ring stage (4-6% parasitemia) of the erythrocyctic cycle. After the indicated time of incubation with drug and either previous to or after washing 3 times with 100 volumes growth medium, the cells were supplemented with 6 μCi of either [^3 H]-hypoxanthine or [^3 H]-Ileu (Amersham, England) per well and parasite growth assessed after 24-48 hours by harvesting the labelled cells onto glass-fiber filters (Tamar, Inc. Jerusalem) and counting of the radioactivity.
The antimalarial activity of the different chelators was initially evaluated on cultures of trophozoites which were exposed for 24 hours to different concentrations of chelators. Following that period, [^3 H]-hypoxanthine or [^3 H]-Ileu were added and 24 hours later the parasitemia and incorporation of label into macromolecular material was determined.

[2] = system: normal and infected red cells; experiment: Distribution of 59Fe counts after uptake (80,000g lysate fractionation); format: cell-based, human; details: 59Fe complex, lysates 80,000g×20 min
Experimental: (§3) k. Uptake of radioactive carrier-Fe complexes. DFO and the different SF derivatives were pre-complexed with iron by addition of concentrated stock solutions of 20 mg/ml carriers to ^59 FeCl3 (Amersham, England) in 0.5 ml of 150 mM NaCl, 10 mM Hepes at 3-5 molar excess of carrier for 1 hour at room temperature. To begin the flux, normal or parasitized red cells that had been washed 3 times in saline buffer and resuspended in the same buffer supplemented with 5% bovine serum albumin (BSA), 2.5 mM citrate, 2 mg/ml glucose were added to radioactive ^59 Fe-complexes at a final suspension of 20% hematocrit. After incubation at 37° C., 75 μl suspension was removed in duplicate aliquots for each time point, placed in plastic 15 ml test tube (Starstedt) and centrifuged 1 minute at 2,500 g. The supernatant was removed and the pellet immediately placed on ice. After all sampling was completed the pellets were washed twice in 15 ml of ice cold buffer containing 50 mM EDTA and lysed in distilled water. Radioactivity (Gamma emission, 700-1300 Kev) was counted and the cell number for each sample determined from hemoglobin absorption of the lysate at 410 nm.
Due to the fact that RSF's have markedly greater lipophilicity than DFO, they were expected to faster penetrate and therefore more effectively chelate intracellular iron after short exposure times. […]

[3] = system: synchronized cultures of rings (P. falciparum); experiment: Time dependence of parasite growth inhibition, rings; format: cell-based, Plasmodium falciparum; details: for inhibition at 10 µg/mL: Plasmodium falciparum, read-out: Inhibition of parasite growth; for Inhibitory effect, in words: rings
Experimental: as §2
To study the growth stage of parasites most sensitive to inhibition, the time dependence of the inhibitory effect of SF1-ileu (10 μg/ml) vis a vis that of DFO (80 μg/ml) was assessed both on synchronized cultures of rings and of cultures of trophozoites. The cells were exposed to the […], the cells were washed from extracellular drug and assessed for [^3 H]-hypoxanthine incorporation after the last sample completed the 4 hours incubation period with drug.

infected red cells = experiment: Uptake of 59Fe-carrier complexes into infected red cells; format: cell-based, human erythrocytes infected with P. falciparum
Experimental: as §3
Penetration of RSF's into normal and infected red cells was estimated by monitoring uptake of the RSF's-^59 Fe(III) complexes into infected and uninfected cells and compared to DFO. In order to confirm actual uptake of Fe-RSF ileun2 rather than adsorption to the outer membrane, cells were thoroughly washed and lysates were subjected to 80,000g×20 min centrifugation.
The carriers were pre-complexed to ^59 FeCl3 at 4:1 ration in DMSO with 5 μM external FeCl3 (from methanolic stock solutions). The radioactive complexes were then added to 20% hematocrit cell suspensions and flux was measured. […] Cell number was determined from hemoglobin absorption of lysate at 410 nm.

[4] = system: Plasmodium falciparum strain D6; experiment: Antimalarial activity in various strains, D6; format: cell-based
Experimental: as §1
(§4) g. Bioassay of iron carrier antimalarial activity. […] After the indicated time of incubation with drug and either previous to or after washing 3 times with 100 volumes growth medium, the cells were supplemented with 6 μCi of either [^3 H]-hypoxanthine or [^3 H]-Ileu (Amersham, England) per well and parasite growth assessed after 24-48 hours by harvesting the labelled cells onto glass-fiber filters (Tamar, Inc. Jerusalem) and counting of the radioactivity.
(§5) It is clear that the efficacy of the agents is primarily correlated with the respective octanol/saline partition coefficient or the hydrophobicity of the amino acid side chain, and only secondarily with their iron binding efficiencies, which are relatively high for all the agents. […] The antimalarial activity of the various chelators was assessed over a 24 hr period of exposure on infected cells (trophozoite stage of P. falciparum) as described in method (g). […]

[5] = system: human Hep2 hepatoma cells; experiment: Iron extraction from hepatoma cells (NBD-DFO fluorescence); format: cell-based; details: cells pre-exposed to chelator (80 μg/ml, 18 hour)
[6] = system: Plasmodium falciparum strain W2; experiment: Antimalarial activity in various strains, W2; format: cell-based
Experimental: as §1, §4, §5

[7] = Relative iron(III) binding efficiency by competition with EDTA; format: physicochemical; details: for Relative binding: Table 1, DFO = 100, competition with EDTA in aqueous MeOH; for rel. Fe binding (b): Table 2, relative to DFO = 1.16, 0.75 mM hydroxamate, 0.15 mM EDTA, 0.15 mM Fe3+ in aqueous methanol; for Pcoeff*Fe binding (a*b): product of relative partition coefficient and relative iron(III) binding
Experimental: c. The relative binding efficiencies of the reversed siderophores (0.75 mM reversed siderophore and 0.15 mM Fe^3+ in aqueous MeOH (MeOH-0.1N NaOAc) were incubated with EDTA (0.15 mM). After equilibration overnight, the fraction of siderophore- Fe^3+ complex present was determined at 430 nm.
The values for Pcoeff of free RSF ileun2 (the same as SF1ileu) and of leun2 and their respective iron(III) complexes were similar (not shown).

[8] = iron(III) complex, infected red cells, 5 μM external Fe

Structure (SMILES): CC[C@H](C)[C@H](NC(=O)CCOCC(CC)(COCCC(=O)N[C@H](C(=O)N(C)O)[C@@H](C)CC)COCCC(=O)N[C@H](C(=O)N(C)O)[C@@H](C)CC)C(=O)N(C)O [SF1-ileu]
IC50 ([1]; 48 h): 2 µg/mL (≈ 2.57 µM)
Total counts found in the cytosol fraction [2]: More than 90%
inhibition at 10 µg/mL ([3]; 2 h): ~70%
inhibition at 10 µg/mL ([3]; 20 h): > 95%
Inhibitory effect, in words ([3]; 0.5 hr incubation, SF1-ileu 10 μg/ml): major inhibitory effects
Time to maximum uptake (infected red cells; iron(III) complex, infected red cells): 10 to 15 min
Maximum uptake level (infected red cells; [8]): 4 nmoles/10^10 cells
Uptake t1/2 (infected red cells; [8]): 2 to 3 min
IC50 ([4]; D6, 48 h): 6 ± 2 µg/mL (≈ 7.72 µM)
Chelatable cytosolic iron [5]: demonstrably reduced
IC50 ([6]; W2, 48 h): 4 ± 1 µg/mL (≈ 5.15 µM)
Relative binding [7]: 25
rel. Fe binding (b) [7]: 0.29
Pcoeff*Fe binding (a*b) [7]: 2.4

IC50 ([1]; 48 hours exposure, strain ItG2G1 trophozoites, read-out: IC50): 30 µg/mL (≈ 53.5 µM)
Uptake level lower than that attained by RSF's after 10 minutes (infected red cells; intracellular Fe-DFO after 8 hours vs RSF's after 10 minutes): 20 fold
IC50 ([4]; strain D6 (chloroquine-sensitive), 48 hour exposure, trophozoites, read-out: IC50): 40 ± 9 µg/mL (≈ 71.3 µM)
IC50 ([6]; strain W2 (chloroquine-resistant), 48 hour exposure, trophozoites, read-out: IC50): 31 ± 6 µg/mL (≈ 55.3 µM)
Relative binding [7]: 100
rel. Fe binding (b) [7]: 1.16
Pcoeff*Fe binding (a*b) [7]: 0.065
Structure (SMILES): CC(=O)N(O)CCCCCNC(=O)CCC(=O)N(O)CCCCCNC(=O)CCC(=O)N(O)CCCCCN [DFO, desferrioxamine B, reference compound]
Inhibitory effect, in words ([3]; DFO 80 μg/ml, 6 hrs exposure): inhibitory effects were dismal
Inhibitory effect, in words ([3]; DFO 80 μg/ml, 20 hrs exposure): substantial inhibition
Uptake into infected vs normal red cells (infected red cells; DFO-Fe, 8 hour time course): approximately twice that of normal red cells
